# Measurements taken from patent US9308223B2, “Om vitamin formula” (priority 2008, dated 2016).
# Test system: ill-health symptoms of Lead intoxication
# Experiment: Inventor's trial-and-error self-administration of vitamins to alleviate Lead intoxication symptoms
# Format: in vivo, human
# Conditions: for soothing of Lead intoxication symptoms: Beta Carotene around 20,000 I.U. and vitamin E around 100 I.U. in the formula, Lead intoxication with no other health conditions
# From the text: I was already taking vitamins, so I started working with variety of vitamins in varying doses to alleviate the suffering. This was like an experiment on my body to find a balanced dose to alleviate Lead intoxication symptoms. It took me one and half decade to find the correct mix and proportion of vitamins. I will explain later why it took me so many years.
# Vitamins dose was working correctly, however, I was taking certain quantity of milk (Calcium) in my diet so dose was adjusted with certain quantity of milk also. […] However, most of the symptoms as described earlier were alleviated with vitamins. In 2001, dizziness was extreme and glucose test was very close to borderline. Additional symptoms like some weight gain, elevated blood pressure and elevated cholesterol were noted. I realized immediately that I have done something wrong in working out the vitamin dose for Lead intoxication so I reversed engineering to figure out the dose with less quantity of milk. In 2005-2006 timeframe, I started gaining confidence that vitamin dose to cure Lead intoxication is absolutely correct and I decided to file the patent papers. […] I wish I could have this dose in 1990 then I didn't have to go through all the suffering and pain from 1990-2005, almost fifteen years. Therefore the vitamin dose or multi-vitamin formula for Lead intoxication is determined by trial and error method and is the result of fifteen years of work. Sometimes God makes the things happen for purpose and I was chosen the vehicle.
# All these symptoms depend upon the amount of lead in body and the kind of diet and vitamins I was taking. I went through lot of ups and downs in figuring out the vitamin dose or formula to cure Lead induced ill-health symptoms. I gained so much experience by working trial and error methods on vitamins that I could simulate most of these symptoms in my body. […] I have shown this formula below as OM-50 dose, primarily because some vitamins' quantities are in 50 unit. Multiply all the ingredients by 2 will give OM-100, and divide by 2 will give OM-25, and so on.
Compound,"effectiveness during heavy bleeding and/or elevated sugar level (Beta Carotene 30,000 I.U. in the formula, Lead intoxication plus heavy bleeding and/or elevated sugar level)",soothing of Lead intoxication symptoms
CC1=C(/C=C/C(C)=C/C=C/C(C)=C/C=C/C=C(C)/C=C/C=C(C)/C=C/C2=C(C)CCCC2(C)C)C(C)(C)CCC1 [Beta Carotene],very effective,soothe very effectively
vitamin E,,soothe very effectively
